The source of these data is ChEMBL document CHEMBL5233236, “p62 as a therapeutic target for tumor” (Eur J Med Chem, 2020).

Test [1] in a line: Inhibition of full length human GST tagged LC3 (1 to 120 residues)/p62 (unknown origin) interaction expressed in Escherichia coli BL21 Star (DE3) incubated for 2 hrs by SPR based competitive binding assay. (In general: SPR reads the build-up and loss of mass on a sensor chip optically.)
The subject of test [2] is MM1.S. In words: Inhibition of cell growth in human MM1.S cells incubated for 48 hrs by MTT assay. The class given is functional, cell-based. A general note: Tetrazolium assays rely on reduction of a dye to a coloured formazan, in cell work by metabolically active cells.
The subject of test [3] is MM1.S. In words: Inhibition of cell growth in human MM1.S cells. It counts as functional.

With `O=C(O)CSc1cc(NS(=O)(=O)c2ccc(Br)cc2)c2ccccc2c1O`, the IC50 (in general, the point on the concentration scale where inhibition reaches its midpoint) in test [1] turned out to be 0.9 µM.
In the test on MM1.S [2], `OCCNCc1ccc(OCc2ccccc2)c(OCc2ccccc2)c1` had an IC50 of 6.19 µM.
Take `Fc1ccc(COc2ccc(CNCC3CCCCC3)cc2OCc2ccc(F)cc2F)c(F)c1`: the half-maximal inhibitory concentration (IC50) in the test with MM1.S [3] amounted to 0.84 µM.
Molecule `O=C1CC(=O)c2ccc3c4c(ccc1c24)C(=O)CC3=O` yielded an IC50 in test [1] of 2 µM.
For the molecule `OCCNCc1ccc(OCc2ccc(F)cc2)c(OCc2ccc(F)cc2)c1`, the IC50 in the test on MM1.S [2] worked out at 4.6 µM.
